Data on 2 compounds can be found in US8012748B2, “Peripheral nervous system specific sodium channel nucleic acids” (The Research Foundation of State University of New York, priority 1994, dated 2011).

Test [1] concerns the target DRG sodium channel. The conditions noted are these: cited from earlier work.
In test [2] the target is T1, PNS SCP (PN1 sodium channel) in PK1-4 cells (Rattus norvegicus, UniProt O08562).
T1 construct: PKI-4 cells express a PNS SCP(PN1) without NGF treatment; endogenous in cells
Nature of the test: (14C) guanidinium flux assay in cells expressing a PNS SCP. It counts as cell-based.

Molecules are shown by their SMILES.

T1 sequence (O08562 whole entry): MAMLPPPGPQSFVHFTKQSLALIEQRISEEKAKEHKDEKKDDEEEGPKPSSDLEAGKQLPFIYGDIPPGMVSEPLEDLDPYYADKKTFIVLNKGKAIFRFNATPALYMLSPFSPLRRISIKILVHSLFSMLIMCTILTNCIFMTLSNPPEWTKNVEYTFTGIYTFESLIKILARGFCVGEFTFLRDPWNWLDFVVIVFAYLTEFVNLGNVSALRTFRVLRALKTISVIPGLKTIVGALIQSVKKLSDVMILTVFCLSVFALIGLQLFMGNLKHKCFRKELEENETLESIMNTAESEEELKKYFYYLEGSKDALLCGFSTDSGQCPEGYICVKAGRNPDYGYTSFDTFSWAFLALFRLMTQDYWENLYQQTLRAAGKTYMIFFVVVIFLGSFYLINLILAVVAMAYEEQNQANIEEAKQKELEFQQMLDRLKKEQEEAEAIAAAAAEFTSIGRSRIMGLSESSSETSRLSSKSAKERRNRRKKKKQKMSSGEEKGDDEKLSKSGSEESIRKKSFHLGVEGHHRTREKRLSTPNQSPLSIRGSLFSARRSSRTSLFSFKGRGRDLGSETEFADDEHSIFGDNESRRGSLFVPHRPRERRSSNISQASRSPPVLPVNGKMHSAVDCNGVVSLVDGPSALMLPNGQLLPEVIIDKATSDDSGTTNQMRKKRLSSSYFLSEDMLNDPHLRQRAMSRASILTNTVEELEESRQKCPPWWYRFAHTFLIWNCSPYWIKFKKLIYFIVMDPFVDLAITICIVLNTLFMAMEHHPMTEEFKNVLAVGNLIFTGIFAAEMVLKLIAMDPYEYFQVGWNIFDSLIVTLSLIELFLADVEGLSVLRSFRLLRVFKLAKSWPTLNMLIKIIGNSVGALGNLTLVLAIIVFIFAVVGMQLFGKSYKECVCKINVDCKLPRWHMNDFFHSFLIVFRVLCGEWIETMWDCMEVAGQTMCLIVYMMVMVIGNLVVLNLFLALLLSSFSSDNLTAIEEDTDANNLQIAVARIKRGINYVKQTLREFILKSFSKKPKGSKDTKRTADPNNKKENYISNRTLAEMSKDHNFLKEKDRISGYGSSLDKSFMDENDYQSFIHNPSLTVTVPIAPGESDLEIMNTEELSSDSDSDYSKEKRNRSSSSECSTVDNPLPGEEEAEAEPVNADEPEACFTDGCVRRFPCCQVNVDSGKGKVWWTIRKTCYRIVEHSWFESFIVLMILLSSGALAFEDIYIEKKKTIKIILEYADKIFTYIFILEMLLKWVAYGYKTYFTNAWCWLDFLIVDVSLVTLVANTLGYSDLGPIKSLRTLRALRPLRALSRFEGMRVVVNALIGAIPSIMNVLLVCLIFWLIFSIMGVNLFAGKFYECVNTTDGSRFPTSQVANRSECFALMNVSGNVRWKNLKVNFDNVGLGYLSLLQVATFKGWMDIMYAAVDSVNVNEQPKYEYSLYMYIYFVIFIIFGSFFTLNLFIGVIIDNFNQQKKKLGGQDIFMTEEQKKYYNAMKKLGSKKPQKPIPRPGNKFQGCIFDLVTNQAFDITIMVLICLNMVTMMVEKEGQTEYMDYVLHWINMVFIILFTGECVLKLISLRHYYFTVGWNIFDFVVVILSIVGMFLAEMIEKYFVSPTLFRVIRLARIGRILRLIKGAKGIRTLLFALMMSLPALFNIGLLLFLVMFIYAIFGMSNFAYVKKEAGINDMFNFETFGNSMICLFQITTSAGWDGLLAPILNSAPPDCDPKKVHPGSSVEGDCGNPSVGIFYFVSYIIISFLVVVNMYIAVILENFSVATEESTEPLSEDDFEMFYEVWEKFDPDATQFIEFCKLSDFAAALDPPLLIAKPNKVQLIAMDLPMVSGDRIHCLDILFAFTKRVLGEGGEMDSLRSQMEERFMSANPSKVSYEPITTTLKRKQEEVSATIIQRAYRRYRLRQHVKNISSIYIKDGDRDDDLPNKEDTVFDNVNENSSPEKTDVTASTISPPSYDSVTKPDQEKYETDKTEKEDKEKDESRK

Regarding `NC1=N[C@H](O)[C@H]2[C@H]3O[C@]4(O)O[C@@H]([C@@H](O)[C@@]2(N1)[C@@H]4O)[C@]3(O)CO` [TTX, tetrodotoxin], in test [1], the “kD for TTX of the DRG channel relative to the kD of sodium channels in skeletal muscle or heart” value is on record as “approximately tenfold higher”.
On to `Cc1cccc(C)c1NC(=O)CN1CCN(CCCC(c2ccc(F)cc2)c2ccc(F)cc2)CC1` [lidoflazine], for which the “inhibition of sodium channel activity of at least one PNS SCP” value in test [2] (cell lines expressing at least one PNS SCP (PC12, PK1-4 and other isolated or recombinant cells)) was “found to inhibit sodium channel activity”. In test [2] (guanidinium flux assay, PK1-4 cells, read-out: for inhibition of sodium channel activity (converted)), the IC50 is 309 nM.
